Source: ChEMBL document CHEMBL3430912, “GSK Tres Cantos Anti-Kinetoplastid Screening (TCAKS) Data”

Assays:
[1] = system: Trypanosoma cruzi; assay: (§1) GSK_TCAKS: pIC50 H2C9 Imaging: H9c2 Host Cardiomyocytes. […] Cells were then washed once with PBS before infection. T. cruzi trypomastigotes, collected at days 5 to 8 after infection from LLC-MK2 parasite infected cultures, were allowed to swim out for 4h at 37C from a centrifuged pellet (2,500 rpm/10 min/room temperature). Trypomastigotes were then collected and counted in a CASY Cell Counter. Trypomastigotes, in supplemented DMEM, were added to H9c2 cultures in a multiplicity of infection of 1 and incubated for 18 h. Cells were washed once with PBS before incubation of the infected H9c2 monolayer with trypsin (Life-Technologies) to detach cells from the flask. Cells were counted in a CASY Cell Counter using a 150 um capillary and their density set at 5 * 10^4 cells per mL in supplemented assay DMEM. Infected H9c2 were dispensed into 384-well poly-lysine coated assay plates at 50uL per well using a Multidrop Combi dispenser. After seeding them, the plates were incubated at 37C, 5% CO2 for 72h. Cultures were then fixed and stained by addition of 50 uL of a solution containing 8% formaldehyde and 4 uM DRAQ5 DNA dye (BioStatus, UK) per well. […] Five images were collected per well for reliable statistical analysis. Automated image analysis was performed with a script developed on Acapella High Content Imaging and Analysis Software (PerkinElmer). Output: Number of H9c2 Host Cardiomyocytes nuclei to determine drug-related cytotoxicity.; format: functional, organism-based, Rattus norvegicus; conditions: H9c2, 4 h
[2] = system: Trypanosoma cruzi; assay: as §1, with “Trypanosoma cruzi” for “H2C9”, “Amastigotes/Cell.” for “H9c2 Host Cardiomyocytes.”, “number” for “Number”, “amastigotes per cell as infection level measurement.” for “H9c2 Host Cardiomyocytes nuclei to determine drug-related cytotoxicity.”; format: functional, organism-based, Rattus norvegicus; conditions: H9c2, 4 h
[3] = molecular target: Sterol 14-alpha demethylase (Trypanosoma cruzi (strain CL Brener), UniProt Q7Z1V1); assay: GSK_TCAKS: pIC50 CYP51 from Trypanosoma cruzi.; format: functional
Sterol 14-alpha demethylase, sequence (Q7Z1V1 whole entry): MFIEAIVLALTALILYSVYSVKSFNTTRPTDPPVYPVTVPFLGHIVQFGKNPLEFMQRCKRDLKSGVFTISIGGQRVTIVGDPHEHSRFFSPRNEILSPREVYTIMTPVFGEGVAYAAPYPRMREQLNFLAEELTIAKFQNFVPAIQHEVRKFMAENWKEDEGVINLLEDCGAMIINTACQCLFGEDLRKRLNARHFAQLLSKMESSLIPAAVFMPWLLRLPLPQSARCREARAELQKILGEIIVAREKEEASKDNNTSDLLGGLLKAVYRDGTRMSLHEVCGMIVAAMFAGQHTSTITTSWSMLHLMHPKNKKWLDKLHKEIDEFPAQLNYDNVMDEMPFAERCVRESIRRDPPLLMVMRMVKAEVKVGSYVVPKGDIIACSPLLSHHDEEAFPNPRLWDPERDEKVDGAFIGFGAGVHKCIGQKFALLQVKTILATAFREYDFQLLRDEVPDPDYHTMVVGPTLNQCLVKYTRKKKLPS

[4] = GSK_TCAKS: pIC50 HepG2 human cell line viability assay using luminiscence. […] Seeding density was checked to ensure that new mono-layers were not more than 50% confluent at the time of harvesting. Cell suspension was added to 500 mL of the same medium at a final density of 1.2 * 10^5 cells/mL. This cell suspension was dispensed (25 uL, 3000 cells per well) into 384-well clear-bottom plates using a Multidrop Combi dispenser. Prior to addition of the cell suspension, the screening compounds (250 nL) were pre-dispensed into the plates with an Echo liquid handler. Plates were incubated for 48 h at 37C, 5% CO2. After incubation, plates equilibrated at room temperature for 30 min before proceeding to develop the luminescent signal. The signal developer, CellTiter-Glo Reagent, was allowed to equilibrate at room temperature for 30 min and added to the plates (25uL per well) using a Multidrop Combi dispenser. Plates were left for 10 min at room temperature for stabilization and then read using a ViewLux.; format: toxicity, cell-based
[5] = system: Trypanosoma cruzi; assay: GSK_TCAKS: pIC50 Trypanosoma cruzi viability assay using beta-GAL activity. This assay was run at single shot at 5uM compound concentration per well. The biological reagents consisted of NIH-3T3 host cells and trypomastigotes parasitic cells; both cell types were set to a 3.3 * 10^5 cells/mL dilution in assay DMEM by means of a CASY cell counter device using a 60um capillary. 6 uL of the mixture were dispensed per well (about 1 * 10^3 host-cells and 1 * 10^3 parasites) with a Multidrop Combi dispenser. […] In all wells, the percentage of DMSO never exceeded 0.5%. Plates incubated for four days at 37C, 5% CO2. The substrate used for the assay fluorescence intensity (FLINT) readout was resorufin-beta-D-galactopiranoside (Sigma-Aldrich) at 5uM per well. It was diluted in PBS supplemented with the soft detergent Igepal (Fluka).; format: functional, organism-based, Mus musculus; conditions: Tulahuen, NIH3T3
[6] = system: Trypanosoma brucei brucei; assay: GSK_TCAKS: pIC50 Trypanosoma brucei viability assay using luminiscence. Assay plates (1536-well) were prepared. T. brucei cultures were harvested and counted in a CASY cell counter. A parasite suspension was prepared at a final concentration of 5 * 10^4 cells/mL in complete HMI9 medium and 6uL was dispensed to all wells containing compounds using a Multidrop Combi dispenser. 6uL of HMI9 media with 0.4% DMSO were dispensed to control columns. Plates were incubated for 24 h at 37C, 5% CO2 then tempered for 10 min at room temperature. ATP content was quantified by adding 4 uL of CellTiter-Glo Reagent (Promega) according to the manufacturer's instructions. Luminescence was measured using a ViewLux.; format: functional, organism-based; conditions: Lister 427, CASY
[7] = system: Trypanosoma brucei brucei; assay: GSK_TCAKS: pIC50 Trypanosoma brucei viability assay using fluorescence intensity. Assay plates (1536-well) were prepared by dispensing 25nL of compound solution per well using an Echo acoustic dispenser (Labcyte).; format: functional, organism-based; conditions: Lister 427, 2 h
[8] = system: Leishmania donovani; assay: (§2) GSK_TCAKS: pIC50 Leishmania donovani Imaging: THP-1 Host Macrophages. Assay plates (384-well) were prepared by adding 250nL of compound to each well. For single shot assay, the final compound concentration was 5 uM. […] Automated image analysis was performed with a script developed on Acapella High Content Imaging and Analysis Software (PerkinElmer). Output: THP-1 cell count were reported for each well.; format: functional, organism-based, Homo sapiens
[9] = system: Trypanosoma cruzi; assay: as §1, with “Trypanosoma cruzi” for “H2C9”, “Infected Cells.” for “H9c2 Host Cardiomyocytes.”, “percentage” for “Number”, “infected cells per well as a second infection marker.” for “H9c2 Host Cardiomyocytes nuclei to determine drug-related cytotoxicity.”; format: functional, organism-based, Rattus norvegicus; conditions: H9c2, 4 h
[10] = system: Leishmania donovani; assay: GSK_TCAKS: pIC50 Leishmania donovani viability assay using fluorescence intensity. Assay plates (1536-well) were prepared by adding 30nL per well of compound. For single shot assay, the final compound concentration was 5uM. […] Briefly, eGFP LdBOB axenic amastigotes were harvested, fixed and counted in a CASY cell counter (Roche-Applied Science). A final concentration of 1.5 * 10^5 cells per well were prepared in amastigote media containing 500 U/mL penicillin/streptomycin (Invitrogen) and 6uL was dispensed to each experimental well using a Multidrop Combi dispenser (Thermo Scientific). 6uL of assay media was dispensed to control columns used as reference for 100% compound response. Following incubation for 72 h at 37C, 5% CO2, 2 uL of resazurin was added to each well at a final concentration of 0.5 mM in phosphate buffered saline (PBS) with IGEPAL (Sigma-Aldrich), 0.05% (v/v).; format: functional, organism-based
[11] = system: Leishmania donovani; assay: as §2, with “Infected” for “THP-1 Host”, “Percent of infected macrophage cells” for “THP-1 cell count”; format: functional, organism-based, Homo sapiens; conditions: THP-1
[12] = system: Leishmania donovani; assay: as §2, with “Amastigotes/Macrophages.” for “THP-1 Host Macrophages.”, “Average number of amastigotes per macrophage” for “THP-1”, “cell” for “cell count”; format: functional, organism-based, Homo sapiens; conditions: THP-1

Row | Structure (SMILES) | IC50 [1] [µM] | IC50 [2] [µM] | IC50 [3] [µM] | IC50 at 48 h [4] [µM] | IC50 [5] [µM] | IC50 [6] [µM] | IC50 [7] [µM] | IC50 [8] [µM] | IC50 [9] [µM] | IC50 [10] [µM] | IC50 [11] [µM] | IC50 [12] [µM]
1 | COc1ccc(C2=NCC(CSc3nnc(-c4ccc5c(c4)OCO5)o3)S2)cc1 (centres undefined) | > 50.1 | 0.316 | 10 | > 100 | 2.51 | > 39.8 | 10 | > 50.1 | 0.501 | 1 | 1 | 0.398
2 | O=C(Nc1nc(-c2ccccn2)cs1)c1ccc(S(=O)(=O)N2CCCCC2)cc1 | 2.51 | 0.398 | 6.31 | 63.1 | 0.631 | 0.631 | 0.398 | 12.6 | 0.631 | 0.631 | 1.26 | 1
3 | Cc1ccccc1NS(=O)(=O)c1ccc2[nH]cc(C(=O)NC3CCCCC3)c(=O)c2c1 | 25.1 | 10 | 10 | 31.6 | 10 | 0.316 | 0.251 | 31.6 | 15.8 | > 50.1 | 39.8 | 39.8
4 | CCN(CC)S(=O)(=O)c1ccc(OC)c(NC(=O)c2ccc([N+](=O)[O-])s2)c1 | > 50.1 | 0.126 | 31.6 | > 100 | 0.251 | 0.631 | 0.398 | > 50.1 | 0.158 | > 50.1 | > 50.1 | > 50.1
5 | NS(=O)(=O)c1ccc(CNC(=O)c2ccc([N+](=O)[O-])s2)cc1 | 20 | 0.794 | 39.8 | 15.8 | 1 | 0.251 | 0.251 | 39.8 | 5.01 | 31.6 | 25.1 | 12.6
6 | Cc1ccccc1NS(=O)(=O)c1ccc2[nH]cc(C(=O)NC3CCCC3)c(=O)c2c1 | 20 | 25.1 | 12.6 | 25.1 | 25.1 | 0.631 | 0.316 | 31.6 | 31.6 | > 50.1 | > 50.1 | 39.8
7 | C[C@@H](Oc1cc(-n2cnc3ccc(C(O)CO)cc32)sc1C(N)=O)c1ccccc1C(F)(F)F (some centres undefined) | 0.631 | 15.8 | 25.1 | > 10 | 5.01 | 0.794 | 0.398 | 15.8 | 20 | 15.8 | 20 | 12.6
8 | COc1cccc(S(=O)(=O)Nc2ccc3c(c2)CC(N2CCC(NC(=O)C4CC4)CC2)C3)c1 (centres undefined) | > 50.1 | 31.6 | 63.1 | > 100 | 39.8 | 0.794 | 1 | > 50.1 | > 50.1 | > 50.1 | > 50.1 | 25.1
9 | O=C(NC1CCN(C2Cc3ccc(NS(=O)(=O)c4cc(F)cc(F)c4)cc3C2)CC1)C1CC1 (centres undefined) | > 50.1 | > 50.1 | 50.1 | > 100 | > 50.1 | 0.794 | 1 | 12.6 | > 50.1 | 25.1 | > 50.1 | 12.6
10 | COc1cccc(C(=O)[C@H]2C[C@@H]2CN(Cc2ccccn2)Cc2ccccn2)c1 | 20 | 0.794 | 31.6 | > 100 | 1.26 | 20 | 15.8 | > 50.1 | 1.26 | 7.94 | 2 | 1.58
11 | O=C(CC1(O)C(=O)N(Cc2ccccc2)c2ccc(Br)cc21)c1cccnc1 (centres undefined) | 3.16 | 20 | 3.98 | 63.1 | 5.01 | 0.794 | 0.631 | 39.8 | 25.1 | > 50.1 | > 50.1 | 31.6
12 | O=C(Nc1ccc(-c2nc3ccccc3c(=O)[nH]2)cc1)c1cccs1 | > 50.1 | > 50.1 | > 100 | > 100 | 3.16 | 1 | 0.251 | > 50.1 | > 50.1 | > 50.1 | > 50.1 | > 50.1
13 | O=C(c1ccc(Cl)cc1)c1ccc(OC(=O)N2CCOCC2)cc1 | > 50.1 | 6.31 | 39.8 | > 100 | 12.6 | > 39.8 | 7.94 | > 50.1 | > 50.1 | 6.31 | 5.01 | 2
14 | CCc1cccc(CC)c1-n1c(SCC(=O)NC(=O)NCc2ccco2)nnc1-c1cccnc1 | > 50.1 | 7.94 | 1 | > 100 | 12.6 | 0.794 | 0.398 | > 50.1 | 12.6 | > 50.1 | > 50.1 | > 50.1
15 | C[C@@H](Oc1cc(-n2cnc3ccc(CC(O)CO)cc32)sc1C(N)=O)c1ccccc1Cl (some centres undefined) | 0.126 | 12.6 | 25.1 | > 100 | 3.16 | 0.794 | 0.631 | 39.8 | 50.1 | 25.1 | 39.8 | 31.6
16 | O=C(c1ccccc1)N1CCC(C(=O)N2CCC(Oc3ccccc3Cl)CC2)CC1 | > 50.1 | 25.1 | 20 | > 100 | 2 | 1 | 0.501 | > 50.1 | 31.6 | > 50.1 | > 50.1 | 31.6
17 | CCCc1cc(N)nc(-c2cc(CCC)cc(N)n2)c1 | 0.2 | 0.501 | > 100 | 31.6 | 2 | 7.94 | 3.16 | 20 | 0.631 | 20 | 2.51 | 1.58
